Measurements reported in paper PMC7395062, “Multiparametric assessment of mitochondrial respiratory inhibition in HepG2 and RPTEC/TERT1 cells using a panel of mitochondrial targeting agrochemicals” (Archives of Toxicology, 2020).
Read-outs that look alike come from different tables or passages of the source.

Legend:
Type in all cases: cell-based, human
RPTEC/TERT1 cells = assay: Resazurin reduction viability assay, RPTEC/TERT1; details: RPTEC/TERT1
Description: These cells were obtained under licence from Evercyte GmBH, Vienna Austria. […] For experiments, cells were plated in a required format plate, allowed to become contact-inhibited and fed 24 h prior to treatment exposure. For experiments in galactose condition, cells were fed 24 h prior to experiment with culture medium (custom made DMEM/F12, PromoCell) in which 5 mM glucose was replaced with 5 mM galactose (Merck, G5388).
(§1) The conversion of resazurin to fluorescent resorufin was measured in a plate reader at excitation/emission 540/590 nm.
(§2) All results are average of 2–3 independent experiments.

HepG2 cells = assay: Resazurin reduction viability assay, 2D HepG2
Description: (§3) The HepG2 cell line, a human hepatocellular carcinoma, was obtained from ATCC (American Type Culture Collection, Wesel, Germany). […] Cells were maintained at 37 °C in a 5% CO2 humidified atmosphere, fed every 2 to 3 days and passaged at approximately 80% confluence. […] For galactose experiments, the medium was refreshed 24 h before exposure with galactose-containing medium. […] Culture medium was refreshed every 3–4 days and the culture was maintained for 21 days prior to dosing.
as §1, §2

[1] = test system: CII/CIII (succinate dehydrogenase / cytochrome bc1 complex); details: permeabilised HepG2; sequential substrates/inhibitors
Description: The test compound is injected and OCR is measured. […] OCR is measured for the second time. […] A third and final OCR measurement is conducted.
Compounds were injected sequentially and OCR was measured twice. […] ETC inhibition is determined in decreased OCR.
as §2

HepG2 3D spheroids = assay: Cell death assay (PI staining) in 3D cultured HepG2 spheroids; details: for Effect of repeated exposure (5 × 24 h vs 1 × 24 h) on toxic sensitivity: 3D HepG2 spheroids; for EC50: Homo sapiens, HepG2, 24 h
Description: as §3
At day 21, the culture medium was replaced by fresh medium containing the compounds in the desired concentration. […] For the repeat exposure scenario, Hoechst was added to the 4th exposure and PI to the 5th exposure. […] The confocal imaging was performed using a Nikon TiE2000 with perfect focus system and XY-stage (Nikon, Amsterdam, The Netherlands). Quantification of the Hoechst and PI signal localization was performed using Nis Elements Analysis software. First, a max projection was created of all z-stacks. The overlapping areas between Hoechst and PI in the projection picture were assessed based on a manually curated intensity threshold. Finally, the fraction of spheroids positive for PI staining was determined.
as §2

[2] = read-out: EC50 cell death 3D HepG2, 1 × 24 h exposure
[3] = read-out: EC50 cell death 3D HepG2, 5 × 24 h exposure

Structure (SMILES) | Statistical significance, Viability Galactose settings Resazurin (RPTEC/TERT1 cells; e = 0.08 µM) | Statistical significance, Viability Galactose settings Resazurin (RPTEC/TERT1 cells; f = 0.4 µM) | Statistical significance, Viability Galactose settings Resazurin (RPTEC/TERT1 cells; g = 7 µM) | Statistical significance, Viability Galactose settings Resazurin (RPTEC/TERT1 cells; h = 10 µM) | Statistical significance, Viability Glucose settings Resazurin (RPTEC/TERT1 cells; g = 7 µM) | Statistical significance, Viability Glucose settings Resazurin (RPTEC/TERT1 cells; h = 10 µM) | Statistical significance, Viability Galactose settings Resazurin (HepG2 cells; HepG2, galactose, d = 0.016 µM) | Statistical significance, Viability Galactose settings Resazurin (HepG2 cells; HepG2, galactose, e = 0.08 µM) | Statistical significance, Viability Galactose settings Resazurin (HepG2 cells; HepG2, galactose, f = 0.4 µM) | Statistical significance, Viability Galactose settings Resazurin (HepG2 cells; HepG2, galactose, g = 7 µM) | Statistical significance, Viability Galactose settings Resazurin (HepG2 cells; HepG2, galactose, h = 10 µM) | ETC-complex specificity pattern (CII/CIII) [1] | Effect of repeated exposure (5 × 24 h vs 1 × 24 h) on toxic sensitivity (HepG2 3D spheroids) | EC50 (HepG2 3D spheroids; [2]) | EC50 (HepG2 3D spheroids; [3]) | Statistical significance, Viability Galactose settings Resazurin (HepG2 cells) | Statistical significance, Viability Glucose settings Resazurin (HepG2 cells; HepG2, glucose, h = 10 µM) | Statistical significance, Viability Glucose settings Resazurin (RPTEC/TERT1 cells; f = 0.4 µM) | Effect on resazurin reduction / viability (HepG2 cells; up to 10 µM, 24 h exposure, glucose)
CCCCCC[C@H]1C(=O)O[C@H](C)[C@H](NC(=O)c2cccc(NC=O)c2O)C(=O)O[C@@H](C)[C@@H]1OC(=O)CC(C)C [Antimycin A] | * (*p < 0.05 (Tables 3, 4)) | * (*p < 0.05 (Tables 3, 4)) | * (*p < 0.05 (Tables 3, 4)) | * (*p < 0.05 (Tables 3, 4)) | * (*p < 0.05 (Tables 3, 4)) | * (*p < 0.05 (Tables 3, 4)) | * (*p < 0.05 (Tables 3, 4)) | * (*p < 0.05 (Tables 3, 4)) | * (*p < 0.05 (Tables 3, 4)) | * (*p < 0.05 (Tables 3, 4)) | * (*p < 0.05 (Tables 3, 4)) | conformed to this pattern | increased the toxic sensitivity | > 10 µM | 0.074 µM |  |  |  | 
CO/C=C(/C(=O)OC)c1ccccc1Oc1cc(Oc2ccccc2C#N)ncn1 [Azoxystrobin] |  |  | * (*p < 0.05 (Tables 3, 4)) | * (*p < 0.05 (Tables 3, 4)) |  | * (*p < 0.05 (Tables 3, 4)) |  |  |  | * (*p < 0.05 (Tables 3, 4)) | * (*p < 0.05 (Tables 3, 4)) | only partially rescued with ascorbate/TMPD |  |  |  |  |  |  | 
CSC1=N[C@@](C)(c2ccccc2)C(=O)N1Nc1ccccc1 [Fenamidone] |  |  |  |  |  |  |  |  |  |  | * (*p < 0.05 (Tables 3, 4)) | only partially rescued with ascorbate/TMPD |  |  |  |  |  |  | 
CC(C)(C)c1ccc(CCOc2ncnc3ccccc23)cc1 [Fenazaquin] |  |  |  |  | * (*p < 0.05 (Tables 3, 4)) | * (*p < 0.05 (Tables 3, 4)) |  | * (*p < 0.05 (Tables 3, 4)) | * (*p < 0.05 (Tables 3, 4)) | * (*p < 0.05 (Tables 3, 4)) | * (*p < 0.05 (Tables 3, 4)) |  |  |  |  |  |  |  | 
CO/N=C(/C(=O)OC)c1ccccc1COc1ccccc1C [Kresoxim-methyl] |  |  |  |  |  |  |  |  |  |  |  |  |  |  |  | * (key: *p < 0.05 (Tables 3, 4)) |  |  | 
CO/C=C(/C(=O)OC)c1ccccc1COc1cccc(C(F)(F)F)n1 [Picoxystrobin] |  |  | * (*p < 0.05 (Tables 3, 4)) | * (*p < 0.05 (Tables 3, 4)) |  | * (*p < 0.05 (Tables 3, 4)) |  |  | * (*p < 0.05 (Tables 3, 4)) | * (*p < 0.05 (Tables 3, 4)) | * (*p < 0.05 (Tables 3, 4)) | conformed to this pattern | increased the toxic sensitivity |  |  |  |  |  | 
COC(=O)N(OC)c1ccccc1COc1ccn(-c2ccc(Cl)cc2)n1 [Pyraclostrobin] |  | * (*p < 0.05 (Tables 3, 4)) | * (*p < 0.05 (Tables 3, 4)) | * (*p < 0.05 (Tables 3, 4)) | * (*p < 0.05 (Tables 3, 4)) | * (*p < 0.05 (Tables 3, 4)) |  |  | * (*p < 0.05 (Tables 3, 4)) | * (*p < 0.05 (Tables 3, 4)) | * (*p < 0.05 (Tables 3, 4)) | conformed to this pattern | increased the toxic sensitivity |  |  |  | * (*p < 0.05 (Tables 3, 4)) |  | 
CC(C)(C)c1ccc(CSc2cnn(C(C)(C)C)c(=O)c2Cl)cc1 [Pyridaben] |  |  |  |  | * (*p < 0.05 (Tables 3, 4)) | * (*p < 0.05 (Tables 3, 4)) | * (*p < 0.05 (Tables 3, 4)) | * (*p < 0.05 (Tables 3, 4)) | * (*p < 0.05 (Tables 3, 4)) | * (*p < 0.05 (Tables 3, 4)) | * (*p < 0.05 (Tables 3, 4)) |  |  |  |  |  |  | * (*p < 0.05 (Tables 3, 4)) | 
CCOCCc1ccc(OCCN=c2[nH]cnc(CC)c2Cl)c(C)c1C [Pyrimidifen] |  |  |  |  | * (*p < 0.05 (Tables 3, 4)) | * (*p < 0.05 (Tables 3, 4)) | * (*p < 0.05 (Tables 3, 4)) | * (*p < 0.05 (Tables 3, 4)) | * (*p < 0.05 (Tables 3, 4)) | * (*p < 0.05 (Tables 3, 4)) | * (*p < 0.05 (Tables 3, 4)) |  |  |  |  |  |  |  | 
C=C(C)[C@H]1Cc2c(ccc3c2O[C@@H]2COc4cc(OC)c(OC)cc4[C@@H]2C3=O)O1 [Rotenone] |  |  |  |  |  |  |  |  |  |  |  |  |  | 0.127 µM | 0.028 µM |  |  |  | mildly affected the viability
CCc1nn(C)c(C(=O)NCc2ccc(C(C)(C)C)cc2)c1Cl [Tebufenpyrad] |  |  |  |  | * (*p < 0.05 (Tables 3, 4)) | * (*p < 0.05 (Tables 3, 4)) |  | * (*p < 0.05 (Tables 3, 4)) | * (*p < 0.05 (Tables 3, 4)) | * (*p < 0.05 (Tables 3, 4)) | * (*p < 0.05 (Tables 3, 4)) |  | increased the toxic sensitivity |  |  |  | * (*p < 0.05 (Tables 3, 4)) |  | 
CON=C(C(=O)OC)c1ccccc1CON=C(C)c1cccc(C(F)(F)F)c1 [Trifloxystrobin] |  |  |  |  |  | * (*p < 0.05 (Tables 3, 4)) |  |  | * (*p < 0.05 (Tables 3, 4)) | * (*p < 0.05 (Tables 3, 4)) | * (*p < 0.05 (Tables 3, 4)) | conformed to this pattern |  |  |  |  |  |  | 
